The record followed here is ChEMBL document CHEMBL1201862, “PubChem BioAssay data set” (2004).

SMILES strings stand for the structures.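 Cells were grown in 96-well plates and exposed to each compound for 48 hours at five concentrations; endpoints were interpolated linearly between bracketing concentrations, or set to the highest concentration if not reached. GI50 is the concentration that inhibits growth by half.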 Activity calls are given as the source filed them. Cut-off read from the data, not from the text of the source: active = GI50 up to about 1.1 µM and inactive = higher. A value given as a limit tells only on which side of the number the result lay.

Some test systems named below: OVCAR-3; SNB-75; K562; IGROV-1; NCI-H226; MDA-MB-231; U-251; CAKI-1; OVCAR-5; HCT-15; NCI-H522; NCI-H23; 786-0; MOLT-4; SR; OVCAR-8; UACC-62; SF-539; A498; HCC 2998.
What all share (test): NCI anticancer screen, dose series, 48 h

For `COc1cc(C2=C(C)[C@@H]3CN(CC=C3c3ccc(Cl)cc3)C2)c(S(=O)(=O)O)cc1OC`, the GI50 with OVCAR-3, in the assay on SNB-75, with K562, in the assay on IGROV-1, in the assay on NCI-H226 and in the assay on MDA-MB-231 was > 100 µM (inactive) throughout. The GI50 with U-251 is > 100 µM (inactive); in the assay with CAKI-1 it was > 100 µM (inactive); in the assay with OVCAR-5, > 100 µM (inactive); in the assay with HCT-15, over 100 µM; in the assay on NCI-H522, > 100 µM (inactive); in the assay with NCI-H23 it was > 100 µM (inactive). Besides, the GI50 in the assay on 786-0, with MOLT-4, with SR, in the assay with OVCAR-8 and with UACC-62 was > 100 µM (inactive) each time.

As to `COC(=O)C1=C(O)C(C(=O)OC)[C@]2(O)[C@H](C(=O)OC)[C@H]1C[C@@H](c1ccc(F)cc1)[C@H]2C(=O)OC` (stereo partly drawn), the GI50 in the assay with SF-539 was 18.2 µM (inactive); in the assay with OVCAR-3, 11.1 µM (inactive); with SNB-75, 18.1 µM (inactive); with K562 it was 9.23 µM (inactive); in the assay with IGROV-1 it was 18.8 µM (inactive); with A498, 16.8 µM (inactive). For the same compound, the GI50 in the assay with NCI-H226 was 17.3 µM (inactive); in the assay with MDA-MB-231 it was 30.1 µM (inactive); with U-251, 15.4 µM (inactive); with CAKI-1, 19.1 µM (inactive); with OVCAR-5 it was 17.7 µM (inactive); in the assay with HCT-15, 12.3 µM. Besides, the GI50 is 14.6 µM (inactive) in the assay with HCC 2998; 14 µM (inactive) in the assay on NCI-H23; 14.9 µM (inactive) in the assay with 786-0; 15.2 µM (inactive) in the assay with MOLT-4; 10.9 µM (inactive) in the assay on SR; 20.9 µM (inactive) in the assay on OVCAR-8. In the assay on UACC-62, the GI50 is 13.5 µM (inactive).

Take `CCN(CCO)CC1CCCC2CCCCC21` (stereo not drawn): the GI50 with SF-539 was > 100 µM (inactive); in the assay on OVCAR-3, > 100 µM (inactive); with SNB-75 it was > 100 µM (inactive); with K562, 46.5 µM (inactive); in the assay on IGROV-1, > 100 µM (inactive); in the assay on A498, > 100 µM (inactive). Besides, the GI50 with NCI-H226 was > 100 µM (inactive); in the assay on MDA-MB-231 it was > 100 µM (inactive); in the assay with U-251 it was > 100 µM (inactive); with CAKI-1 it was > 100 µM (inactive); in the assay with OVCAR-5 it was > 100 µM (inactive); in the assay on HCT-15, over 100 µM. The GI50 in the assay on NCI-H522, with HCC 2998, in the assay on NCI-H23, with 786-0, in the assay with OVCAR-8 and in the assay on UACC-62 was > 100 µM (inactive) throughout.

For the compound `O=C(c1ccccc1)c1ccc(N2C(=O)/C(=C/c3cccc([N+](=O)[O-])c3)N=C2c2ccccc2)c(N2C(=O)/C(=C/c3cccc([N+](=O)[O-])c3)N=C2c2ccccc2)c1`, the GI50 in the assay with SF-539 is 26.3 µM (inactive); in the assay with OVCAR-3 it was 30 µM (inactive); in the assay on SNB-75, 15.1 µM (inactive); in the assay with K562 it was 31.7 µM (inactive); in the assay on IGROV-1, 32.4 µM (inactive); in the assay with A498, 19.3 µM (inactive). Moreover, the GI50 in the assay on MDA-MB-231 is > 100 µM (inactive); with U-251 it was 78.7 µM (inactive); with CAKI-1 it was 49.8 µM (inactive); in the assay on OVCAR-5 it was > 100 µM (inactive); with HCT-15, 16.5 µM; with HCC 2998 it was 15 µM (inactive). For the same compound, the GI50 in the assay with 786-0 is 79.1 µM (inactive); in the assay on MOLT-4, 20.5 µM (inactive); with SR, 23.4 µM (inactive); in the assay with OVCAR-8, 42.5 µM (inactive); with UACC-62 it was 20.8 µM (inactive).

For the compound `Cc1[nH]c2[nH]c(=S)nc(NC(N)=S)c2c1Cc1ccccc1`, the GI50 was 37.2 µM (inactive) in the assay with SF-539; 28 µM (inactive) with OVCAR-3; 31.9 µM (inactive) with SNB-75; 25.9 µM (inactive) in the assay with K562; 59 µM (inactive) in the assay on IGROV-1; > 100 µM (inactive) with A498. The GI50 in the assay with NCI-H226 is > 100 µM (inactive); in the assay on MDA-MB-231, 28.1 µM (inactive); with U-251, 43.9 µM (inactive); with CAKI-1, 98.6 µM (inactive); with OVCAR-5, > 100 µM (inactive); in the assay on HCT-15, 58.6 µM. In addition, the GI50 in the assay with NCI-H23 is 29.7 µM (inactive); with 786-0, 26.8 µM (inactive); in the assay with MOLT-4, 23.4 µM (inactive); in the assay with SR, 11.5 µM (inactive); in the assay on OVCAR-8 it was 51.9 µM (inactive); with UACC-62, 29.9 µM (inactive).

`c1ccc(CN2CCC(Nc3ccccc3)(c3nnnn3Cc3ccccc3)CC2)cc1`: the GI50 in the assay on SF-539 was 20.5 µM (inactive); in the assay on SNB-75, 22.7 µM (inactive); in the assay with IGROV-1, 28.1 µM (inactive); with A498 it was 17.2 µM (inactive); in the assay on NCI-H226, 42.7 µM (inactive); with MDA-MB-231, 27.2 µM (inactive). Besides, the GI50 in the assay on U-251 was 22.6 µM (inactive); with OVCAR-5, 22.5 µM (inactive); with HCT-15 it was 27.5 µM; in the assay with HCC 2998 it was 3.01 µM (inactive); with NCI-H23, 50 µM (inactive); in the assay on 786-0 it was 22.4 µM (inactive). For the same compound, the GI50 was 10.1 µM (inactive) in the assay on MOLT-4, 8.77 µM (inactive) in the assay on SR, 32.8 µM (inactive) in the assay on OVCAR-8 and 23.6 µM (inactive) with UACC-62.

Take `O=C(c1ccccc1)C1N=NCC1c1ccc([N+](=O)[O-])cc1` (stereo not drawn): the GI50 is 58.3 µM (inactive) with SF-539; 17.1 µM (inactive) with OVCAR-3; 16.7 µM (inactive) in the assay on SNB-75; 32.5 µM (inactive) in the assay with K562; 39 µM (inactive) with A498; 50.4 µM (inactive) in the assay on NCI-H226. The GI50 with MDA-MB-231 was > 100 µM (inactive); in the assay with U-251, 48.5 µM (inactive); in the assay on CAKI-1, 15 µM (inactive); in the assay with OVCAR-5 it was > 100 µM (inactive); in the assay on HCT-15, 45.8 µM; in the assay with HCC 2998, > 100 µM (inactive). Moreover, the GI50 in the assay on NCI-H23 is 36.1 µM (inactive); with 786-0, > 100 µM (inactive); with MOLT-4, 22.4 µM (inactive); with SR, 27.9 µM (inactive); in the assay with OVCAR-8 it was 42.8 µM (inactive); in the assay on UACC-62 it was 49.4 µM (inactive).

In the case of `Cc1cc2nc(N3C(=O)/C(=C/c4ccc(Cl)cc4)N=C3c3ccccc3)sc2cc1C`, the GI50 in the assay on SF-539 is 18.7 µM (inactive); in the assay with OVCAR-3 it was 15.7 µM (inactive); in the assay with SNB-75, 22.3 µM (inactive); with K562, 32.4 µM (inactive); with IGROV-1, 14.6 µM (inactive); in the assay with A498 it was 32.9 µM (inactive). Further, the GI50 is 50 µM (inactive) in the assay on MDA-MB-231; 29.9 µM (inactive) in the assay on U-251; 26.4 µM (inactive) in the assay on CAKI-1; 24.2 µM (inactive) with OVCAR-5; 29.1 µM in the assay on HCT-15; 24.2 µM (inactive) in the assay on HCC 2998. In addition, the GI50 was 29.4 µM (inactive) in the assay on 786-0; 53.8 µM (inactive) in the assay on MOLT-4; 46.5 µM (inactive) in the assay with SR; 28.4 µM (inactive) in the assay on OVCAR-8; 30.8 µM (inactive) with UACC-62.

Turning to `Cc1ccc(C(=O)N/N=C(\N=N\c2ccccc2[N+](=O)[O-])c2ccc(N(C)C)cc2)cc1`, the GI50 in the assay with SF-539 is > 100 µM (inactive); in the assay on OVCAR-3, 92 µM (inactive); with K562 it was > 100 µM (inactive); with IGROV-1, > 100 µM (inactive); in the assay on NCI-H226, > 100 µM (inactive); in the assay with MDA-MB-231, > 100 µM (inactive). Moreover, the GI50 was > 100 µM (inactive) in the assay on U-251; > 100 µM (inactive) in the assay with CAKI-1; > 100 µM (inactive) in the assay with OVCAR-5; 92.5 µM in the assay on HCT-15; > 100 µM (inactive) in the assay on NCI-H522; 60.5 µM (inactive) in the assay on HCC 2998. The GI50 in the assay on NCI-H23 was > 100 µM (inactive); in the assay with 786-0, > 100 µM (inactive); in the assay with MOLT-4, > 100 µM (inactive); with SR it was 33.7 µM (inactive); with OVCAR-8 it was > 100 µM (inactive); with UACC-62 it was 17.4 µM (inactive).

Take `CC1CCc2sc3nc4n(c(=O)c3c2C1)CC(C)S4` (stereo not drawn): the GI50 in the assay on OVCAR-3 was 7.6 µM (inactive); in the assay with SNB-75, 21.5 µM (inactive); in the assay on K562, 24.7 µM (inactive); in the assay on IGROV-1, 34.2 µM (inactive); in the assay on NCI-H226, 21.8 µM (inactive); in the assay on MDA-MB-231, 20.4 µM (inactive). The GI50 in the assay on U-251 was 25.6 µM (inactive); in the assay on CAKI-1, 36.9 µM (inactive); with OVCAR-5, 27 µM (inactive); with HCT-15 it was 25.6 µM; in the assay on NCI-H522, 30.9 µM (inactive); in the assay with HCC 2998, 19.7 µM (inactive). Moreover, the GI50 is 25.3 µM (inactive) in the assay with NCI-H23; 23.1 µM (inactive) in the assay with 786-0; 26.2 µM (inactive) with SR; 32.2 µM (inactive) in the assay on OVCAR-8; 16.2 µM (inactive) in the assay with UACC-62.

Regarding `COc1cc2c(cc1OCCCCOc1cc3nc(C)nc(Cl)c3cc1OC)N=C[C@@H]1CCCN1C2=O`, the GI50 with SF-539 is 2.04 µM (inactive); in the assay on OVCAR-3, 2.06 µM (inactive); with SNB-75, 1.46 µM (inactive); in the assay with K562 it was 2.07 µM (inactive); in the assay on IGROV-1, 1.64 µM (inactive); in the assay with NCI-H226 it was 1.85 µM (inactive). Moreover, the GI50 with MDA-MB-231 was 1.25 µM (inactive); in the assay with U-251, 1.26 µM (inactive); in the assay with CAKI-1, 2.38 µM (inactive); in the assay on OVCAR-5, 2 µM (inactive); in the assay with HCT-15, 1.43 µM; in the assay with NCI-H522, 0.637 µM (active). Also, the GI50 with NCI-H23 is 1.82 µM (inactive); in the assay on 786-0, 3.12 µM (inactive); with MOLT-4, 1.7 µM (inactive); in the assay with SR it was 0.57 µM (active); in the assay with OVCAR-8 it was 3.01 µM (inactive); in the assay on UACC-62, 1.48 µM (inactive).
